In assay [1] the test system is CD28-induced IL-2 production. The settings on record: cited from earlier work.
The subject of assay [2] is CD4^+ T cells. Description: Long term growth of CD4+ T cells with coated beads (Example 19). Format: cell-based, human. The settings on record: CD4 and CD8^+ T cells. How it is done: CD28^+ T cells were divided into the CD4 and CD8^+ T cell subsets as described in Example 13. […] No cytokine or feeder cells were added to these cultures, and the cultures were maintained as described in Example 1.

The next assay deals with CD28^+ T cells. The assay can be described thus: Lymphokine production by CD28+ T cells, ELISA 24 h (Table 3). Type of assay: cell-based, human. The following applies: no CHO cells. How it is done:
All values were assessed by using dilutions of culture supernatant that yielded read-outs within the linear portion of the standard curve. The cytokine production data is summarized below in Table 3.

The subject of assay [3] is CD4^+ T cells. The assay can be described thus: Lymphokine production by CD4+ T cells (Table 4). Format: cell-based, human. An excerpt:
(§1) To assess whether distinct T cell subsets might differentially respond to B7-1 or B7-2, CD28^+ T cells were divided into CD28^+CD4^+ and CD28^+CD8^+cells and into CD4^+CD45RO^+ and CD4^+CD45RA+subsets. To obtain CD28^+CD4^+ or CD28^+CD8^+ T cells, the CD28^+ T cells were subjected to a second round of negative selection using magnetic beads (Dynal) coated with CD8 or CD4 mAb as described in June et al. (1989) J. Immunol. 143:153. CD4^+CD45RO^+ and CD4^+CD45RA^+ subpopulations were isolated by subjecting CD28^+ T cells to negative selection using magnetic beads and anti-CD45RO monoclonal antibody UCHL1 or anti-CD45RA monoclonal antibody ALB11 (Immuntech). […]

Another assay relates to CD8^+ T cells. Description: Lymphokine production by CD8+ T cells (Table 4). Format: cell-based, human.
Text: as §1

A further assay addresses T1, human CD28 (human, UniProt P10747 19-220).
T1 construct: whole, on cells; also called CD28 on CHO-hh (CHO-HH) cells; CD28 on Jurkat #7 cells
The assay can be described thus: immunofluorescence on Jurkat cells (CD28+ CTLA4-).

Some results are limits rather than exact numbers.

As for `CO[C@H]1[C@@H](OC)C[C@H](C)[C@@H](OC)C2=CC(=O)C=C(NC(=O)/C(C)=C/C=C\[C@H](OC)[C@@H](OC(N)=O)/C(C)=C/[C@@H]1C)C2=O` [herbimycin A], in assay [1], the “effect on CD28-induced IL-2 production” value is given as “can inhibit”.
For the molecule OKT3 only: beads coated with OKT3 alone, the “time to death of the cells” value in the assay with CD4^+ T cells [2] is ≤ 1 week.
Consider “αCD3 only: plastic immobilized anti-CD3 mAb (OKT3) alone”, for which, in the assay on CD28^+ T cells, the GM-CSF is 280 pg/mL, the IFN-γ came out at 280 pg/mL, the IL-2 is <60 pg/mL and the IL-4 is <20 pg/mL. Further, the TNFα in the assay on CD28^+ T cells came out at 380 pg/mL. Further, in the assay with CD4^+ T cells [3], the GM-CSF was determined as 9770 pg/mL, the IFN-γ was 1270 pg/mL and the IL-2 was found to be 93 pg/mL. In the assay with CD8^+ T cells, this molecule gave a GM-CSF of 8900 pg/mL, an IFN-γ of 1620 pg/mL and an IL-2 of 133 pg/mL.

B1: human B7-2Ig fusion protein (Fc fusion)
chain: APLKIQAYFNETADLPCQFANSQNQSLSELVVFWQDQENLVLNEVYLGKEKFDSVHSKYMGRTSFDSDSWTLRLHNLQIKDKGLYQCIIHHKKPTGMIRIHQMNSELSVLANFSQPEIVPISNITENVYINLTCSSIHGYPEPKKMSVLLRTKNSTIEYDGIMQKSQDNVTELYDVSISLSVSFPDVTSNMTIFCILETDKTRLLSSPFSIELEDPQPPPDH
notes: not shown: Fc portion of human IgG1
As to B1, in the assay with human CD28, the binding result is reported as “binds”.

The record behind these values is patent US6905680B2, “Methods of treating HIV infected subjects” (Genetics Institute, Inc., priority 1994, dated 2005).
